From paper PMC6519479 (Molecular systems design & engineering, 2018)
No end group written: not given here.

Key:
Salmonella MH91989 = format: cell-based, Salmonella enterica serovar Enteritidis; details: 1 h
E. coli MC1061 = format: cell-based; details: MC1061, 1 h
E. coli JJ2487 = format: cell-based; details: JJ2487, 1 h
Salmonella SL1344 = format: cell-based, Salmonella enterica serovar Typhimurium; details: 1 h
E. coli JW0013 = format: cell-based; details: for MIC E. coli JW0013: JW0013, 1 h; for MIC in 20% M9 / MIC in 20% MHB / MIC in 60% M9 / MIC in 60% MHB / MIC in 100% M9 / MIC in 100% MHB: JW0013, 6 h
E. coli O157:H7 = format: cell-based; details: O157:H7, 1 h
E. coli J2210 = format: cell-based; details: J2210, 1 h
[1] = cited from earlier work

Row | Substance | MIC Salmonella MH91989 (Salmonella MH91989) [µg/mL] | MIC E. coli MC1061 (E. coli MC1061) [µg/mL] | MIC E. coli JJ2487 (E. coli JJ2487) [µg/mL] | MIC Salmonella SL1344 (Salmonella SL1344) [µg/mL] | MIC E. coli JW0013 (E. coli JW0013) [µg/mL] | MIC in 20% M9 (E. coli JW0013) [µg/mL] | MIC in 20% MHB (E. coli JW0013) [µg/mL] | MIC in 60% M9 (E. coli JW0013) [µg/mL] | MIC in 60% MHB (E. coli JW0013) [µg/mL] | MIC in 100% M9 (E. coli JW0013) [µg/mL] | MIC in 100% MHB (E. coli JW0013) [µg/mL] | MIC E. coli O157:H7 (E. coli O157:H7) [µg/mL] | MIC E. coli J2210 (E. coli J2210) [µg/mL] | antimicrobial activity compared to Onc18 [1]
1 | VDKKPYKPRPRPPRRIYNR-NH2 [VDKKPYKPRPRPPRRIYNR-NH2] | 0.42 ± 0.21 | 0.15 ± 0.03 | 0.30 ± 0.07 | 0.42 ± 0.21 | 0.30 ± 0.07 | 0.30 ± 0.09 | 0.20 ± 0.09 | 1.57 ± 0.68 | 0.79 ± 0.35 | 9.60 ± 2.00 | 2.40 ± 0.56 | 1.57 ± 0.68 | 0.20 ± 0.09 | 
2 | VDKKPYLPRPRPPRRIYNR-NH2 [VDKKPYLPRPRPPRRIYNR-NH2] | 0.60 ± 0.14 | 0.30 ± 0.07 | 0.60 ± 0.14 | 0.60 ± 0.14 | 0.60 ± 0.14 |  |  |  |  |  |  | 2.40 ± 0.56 | 0.39 ± 0.18 | 
3 | VDKKPYRPRPRPPRRIYNR-NH2 [VDKKPYRPRPRPPRRIYNR-NH2] | 0.39 ± 0.18 | 0.15 ± 0.03 | 0.30 ± 0.07 | 0.39 ± 0.18 | 0.39 ± 0.18 | 0.39 ± 0.18 | 0.20 ± 0.09 | 1.20 ± 0.28 | 0.60 ± 0.14 | 9.60 ± 2.00 | 2.40 ± 0.56 | 1.57 ± 0.68 | 0.30 ± 0.07 | 
4 | VDKPPYKPRPRPPRRIYNR-NH2 [VDKPPYKPRPRPPRRIYNR-NH2] | 0.60 ± 0.14 | 0.15 ± 0.03 | 0.79 ± 0.35 | 0.60 ± 0.14 | 0.60 ± 0.14 |  |  |  |  |  |  | 2.40 ± 0.56 | 0.30 ± 0.07 | 
5 | VDKPPYLPRPRPPROIYNO-NH2 [Onc72] |  |  |  |  |  |  |  |  |  |  |  |  |  | improved
6 | VDKPPYLPRPRPPRRIYNR-NH2 [VDKPPYLPRPRPPRRIYNR-NH2, reference compound] | 0.60 ± 0.14 | 0.30 ± 0.07 | 0.60 ± 0.14 | 0.60 ± 0.14 | 0.83 ± 0.42 | 0.60 ± 0.14 | 0.79 ± 0.35 | 1.20 ± 0.28 | 1.20 ± 0.28 | 2.40 ± 0.56 | 2.40 ± 0.56 | 3.14 ± 1.28 | 0.79 ± 0.35 | 
7 | VDKPPYLPRPRPPRrIYNr-NH2 [Onc112] |  |  |  |  |  |  |  |  |  |  |  |  |  | improved
8 | VDKPPYRPRPRPPRRIYNR-NH2 [VDKPPYRPRPRPPRRIYNR-NH2] | 0.60 ± 0.14 | 0.20 ± 0.09 | 0.39 ± 0.18 | 0.42 ± 0.21 | 0.42 ± 0.21 |  |  |  |  |  |  | 2.40 ± 0.56 | 0.39 ± 0.18 | 
9 | VDKRPYLPRPRPPRRIYNR-NH2 [VDKRPYLPRPRPPRRIYNR-NH2] | 0.60 ± 0.14 | 0.30 ± 0.07 | 0.39 ± 0.18 | 0.60 ± 0.14 | 0.83 ± 0.42 |  |  |  |  |  |  | 2.40 ± 0.56 | 0.60 ± 0.14 | 
10 | VDKRPYRPRPRPPRRIYNR-NH2 [VDKRPYRPRPRPPRRIYNR-NH2] | 0.42 ± 0.21 | 0.15 ± 0.03 | 0.42 ± 0.21 | 0.39 ± 0.18 | 0.39 ± 0.18 |  |  |  |  |  |  | 1.66 ± 0.82 | 0.30 ± 0.07 | 
